No end group written: not given here.
Experiments:
[1] = Treatment of severe inflammation, post-surgery patient (Example 5); assay type: in vivo, human; details: intravenously 5 mcg/minute for 1 hour, second dose after 24 hours; within two days
Description: In this example, a patient is recovering from surgery following a traumatic vehicle accident. The treating physician anticipates further complications such as acute respiratory distress syndrome (ARDS) and (multiple) organ failure. To prevent this, the treating physician administers a compound of Formula DCT-5A to the patient. The patient is administered the drug intravenously (i.e., 5 mcg/minute for 1 hour). The patient is administered a second dose after 24 hours. […] The patient resumes the treatment and is periodically monitored for changes in their condition.

[2] = Treatment of PR3 positive ulcerative colitis patient (Example 7); assay type: in vivo, human; details: intravenously 5 mcg/minute for 1 hour, second dose after 24 hours; within two days
Description: In this example, a patient is admitted to a hospital with cough and fever (over 39.0° C.). About one month prior, they had presented with fever (over 39.0° C.), diarrhea and bloody bowel discharge. Upon admission, their hemoglobin was 8.9 g/dl and the serum C-reactive protein level was 6.8 mg/dl. […] Further, the patient tested positive for PR3-ANCA serological marker.
The treating physician administers a compound of Formula DCT-5A to the patient. The patient is administered the drug intravenously (i.e., 5 mcg/minute for 1 hour). The patient is administered a second dose after 24 hours. […] Thereafter, the patient is administered the drug orally (50 mg per day). The patient resumes the treatment and is periodically monitored for changes in their condition.

[3] = Treatment of Alpha-1 Antitrypsin Deficiency patient (Example 4); assay type: in vivo, human; details: orally 50 mg once per day; within two weeks
Description: In this example, a patient is diagnosed with AATD after presenting symptoms related to difficulty breathing and mild jaundice. […] The patient receives conventional therapy (e.g., bronchodilators, inhaled corticosteroids, pulmonary rehabilitation and supplemental oxygen). […] This treatment leads to some improvement, but the patient returns to the clinic seeking an alternative treatment.
The treating physician administers a compound of Formula DCT-5A to the patient: […]
The patient is administered the drug orally (i.e., 50 mg, once per day). Within two weeks, the signs/symptoms of AATD are resolved by about 80% and the patient appears in good health. The patient resumes the treatment and is periodically monitored for changes in their condition.

[4] = Treatment of Granulomatosis with Polyangiitis patient (Example 6); assay type: in vivo, human; details: GPA patient; orally 50 mg once per day; within one week
Description: In this example, a patient complains of several symptoms including sinus pain, cough, fever, joint aches, blood in urine, and hearing loss. A physician diagnosis them with GPA after analyzing diagnostic markers.
The treating physician anticipates further complications such as acute respiratory distress syndrome (ARDS) and (multiple) organ failure. To prevent this, the treating physician administers a compound of Formula DCT-5A to the patient. The patient is administered the drug orally (i.e., 50 mg, once per day). Within one week, the signs/symptoms of AATD are resolved by about 90% and the patient appears in good health. The patient resumes the treatment and is periodically monitored for changes in their condition.

[5] = CF patients in an exacerbated state of inflammation; cited from earlier work
[6] = DSS-induced mouse model of UC; cited from earlier work

N=C(N)NCCC(CCCc1ccc(F)cc1)C(=O)NN1CN(CCCc2ccccc2)[C@H](Cc2ccc(O)cc2)C1=O (stereo partly shown) [DCT-5A]
clinical course of the patient [1]: shows signs of improvement | clinical course of the patient [2]: shows signs of improvement | signs/symptoms of AATD resolved [3]: about 80% | signs/symptoms of AATD resolved [4]: about 90%

A1PI: α1-proteinase inhibitor, a serpin; endogenous inhibitor of neutrophilic serine proteinases
effect on IL6, IL1β and NE activity [5]: decrease

elafin: polypeptide inhibitor of some peptidases and elastases; inhibits HNE, PR3 and pancreatic elastase (AQEPVKGPVSTKPGSCPIILIRCAMLNPPNRCLKDTDCPGIKKCCEGSCGMACFVPQ; ends and bridges not checked; cysteine pairing not given here; UniProt P19957 61-117, looked up)
reducing inflammation [6]: successful in reducing inflammation in a dose-dependent manner

B1: SLPI: locally produced chelonianin; inhibits HNE but not PR3 (protein, UniProt P03973 26-132, looked up)
Antileukoproteinase: SGKSFKAGVCPPKKSAQCLRYKKPECQSDWQCPGKKRCCPDTCGIKCLDPVDTPNPTRRKPGKCPVTYGQCLMLNPPNFCEMDGQCKRDLKCCMGMCGKSCVSPVKA
reducing inflammation [6]: also successful

From patent US20250051286A1, “SMALL MOLECULE INHIBITORS OF PR3 AND HNE AND USES THEREOF” (ORIXA THERAPEUTICS LLC, priority 2021, published 2025)
